Patent US20240350669A1, “INHIBITION OF KYNURENINE SYNTHESIS AND/OR SIGNALING TO TREAT LEUKEMIA AND MYELODYSPLASIA” (THE TRUSTEES OF COLUMBIA UNIVERSITY IN THE CITY OF NEW YORK, priority 2022, published 2024)

Assays:
[1] = Systemic toxicity observation in WT mice on epacadostat diet; format: in vivo; details: ad libitum diet 0.8 g/kg
Description: (§1) Epacadostat (AdooQ Cat #A15554)-treatment: for the WT C57BL/6J mice, treatment started at the same time than MLL/AF9 cells were transplanted. For the patient-derived AML cells (PDX) transplanted into NSG mice, treatment started 8 weeks after transplant, at the same time than Ara-C and during 3 weeks. Mice were supplied with ad libitum epacadostat-supplemented diet (Research Diets Inc.) at 800 mg/kg (low-dose) or 1.6 g/kg (high-dose). For the PDX transplanted into NSGS mice, treatment started 3 weeks after transplant, by daily gavage at 300 mg/kg (InvivoChem Cat #: V0942, dissolved in 10% DMSO, 40% PEG 300 and 50% NaCl 0.9%) for 2 weeks.

IDO1 [2] = test: Circulating Kyn and Trp levels (ELISA) in WT mice on epacadostat diet; format: in vivo, mouse
Description: as §1
(§2) Quantification in serum from peripheral blood (mice) or BM plasma (patients) of Kyn and Trp was assessed by ELISA using independent kits (ImmunoSmol) as per manufacturer's instructions. The ratio between Kyn and Trp levels is shown. SAA3 in serum (murine SAA3 ELISA Kit Millipore) and SAA1 in patient BM plasma (Amyloid A1 DuoSet ELISA Kit (R&D) were assessed as per manufacturer's instructions.

[3] = system: patient-derived AML cells; test: Patient-derived AML xenograft (PDX) in NSGS mice, epacadostat daily gavage; format: in vivo, mouse; details: daily gavage 300 mg/kg
Description: as §1
(§3) 4-6 weeks old NSG (CDX model) or NSGS (PDX model) mice were pre-conditioned with sublethal (1.4 Gy) total-body irradiation. 24 h after, 1×10^6 OCI-AML3 or 2×10^5 human BM CD34^+ (healthy) or primary AML patient samples were injected i.v. Engraftment levels were monitored and mice were randomized after BM aspiration 3-4 weeks later and immunophenotyped by the presence of mCD45 (BioLegend Cat #103133, RRID: AB_10899570), hCD45 (BioLegend Cat #368512, RRID: AB_2566372), hCD33 (BioLegend Cat #303404, RRID: AB_314348), hCD34 (BioLegend Cat #343518, RRID: AB_1937203) cell populations. For the low-burden PDX model (kynurenine injections), mice were treated 1 week after transplant.
as §2
(§4) Cell labelling was done by i.p. injection of mice with 50 mg/kg of freshly prepared 5-Ethynyl-2′-deoxyuridine-Edu-(Cayman Chemical Company Cat #20518). After 3-4 h, BM was harvested, and human cells were negatively selected by mouse cell depletion using mouse CD45 magnetic beads (Miltenyi). The human BM cells were then stained CD45 and CD33 to identify the leukemic blast. Cell cycle/proliferation analysis was performed using the Click-iT Plus EdU Flow Cytometry Assay Kit (Invitrogen, Cat #C10420) following manufacturers' instructions. Fixable viability dye (Biolegend) was used to discriminate the death population. Single color controls were used to set compensations and fluorescence minus one control were used to set gates. Analysis was performed with FlowJo software.

[4] = system: patient-derived AML cells; test: Patient-derived AML xenograft in NSG mice, epacadostat chow and/or Ara-C; format: in vivo, mouse
Description: as §1
For the combination therapy (Epacadostat+chemotherapy) performed at the University of Pennsylvania, patient-derived AML cells were transplanted as previously reported (48). Briefly 6 weeks old NSG males were sublethally treated with busulfan (30 mg/kg) 24 h before transplant and 5×10^6 patient-derived AML cells were injected i.v. Engraftment was assessed, and mice were randomized at 7.5 weeks by BM aspirate as previously described. Randomized mice were treated with vehicle, cytosine arabinoside (Ara-C, 60 mg/kg/day×5 days i.p.), epacadostat chow (1.6 g/kg ad libitum) or both Ara-C and epacadostat chow for 3 weeks.

IDO1 [5] = test: Epacadostat in vitro: kynurenine secretion and cell cycle progression; format: cell-based
MLL/AF9 AML cells = test: MLL/AF9 syngeneic leukemia model in non-irradiated WT mice; format: in vivo, mouse
Description: PTH bone-anabolic treatment: mice were injected intraperitoneally (i.p.) with PTH (Bachem) at 80 μg/kg/day in PBS. Injections started 1 week before MLL/AF9 injection and continued along 2-3 more weeks until mice were harvest.
SB224289-SB9-(TOCRIS Cat #1221) treatment: mice were injected intraperitoneally (i.p.) daily with SB9 (5 mg/kg in 0.9% NaCl) 1 week after leukemia injection and for the duration of the experiment. Assuming a 20 g body weight (BW) and a 2 ml total blood volume per mouse—as well as an even distribution of the drug-systemic concentration of SB9 should be approximately 50 μg/ml. Based on the MW of SB9 (557.09), the final concentration—at equal distribution—in blood should be 8.97521e-05 M (≈90 μM).
as §1
All leukemia models were introduced by intravenous (i.v.) injection and transplanted into non-irradiated secondary recipient experimental animals. BALB/c mice were used for the WEHI-3B leukemia model (0.5×10^6/cells/mouse) and C57BL/6J mice for MLL/AF9-dsRed (0.2×10^6/cells/mouse). Leukemia progression was assessed by fluorescence (MLL/AF9 dsRed) using the IVIS-Spectrum Optical Imaging System (Caliper, Perkin Elmer). Mice were shaved to reduce light attenuation.

OCI-AML3 cells = test: IDO1 mRNA in OCI-AML3 cells exposed to recombinant osteoblast-secreted molecules; format: cell-based, human; details: o/n treatment, 50 ng/ml
Description: (§5) Treatments with recombinant proteins: human IL-1α, IL-1β, IL-6, IL-33, IL-34, CXCL1, CXCL3, CXCL5, CXCL8, CCL2, CCL20, Apo-SAA1 (all from Peprotech) and recombinant mouse SAA3 (Cusabio) were performed by o/n treatment with 50 ng/ml of the corresponding protein. SAA1 treatment of human AML cell lines was done with 1 μg/ml for 24, 48 or 72 h. Treatment of primary human MDS or AML lineage-depleted BM-MNCs was done with 5 μg/ml for 24 h. Treatment of PDX isolated human total BM cells was done with 1 μg/ml for 24 h.
(§6) RNA isolation, cDNA preparation and real-time PCR analyses were carried out following standard protocols. Total RNA from cortical bone (clean, flushed femurs, were centrifugated 20 seconds at 10.000 g's to remove any remaining BM) was extracted using TRIzol (Invitrogen) followed by RNA clean-up using PureLink RNA Mini Kit (Ambion, Invitrogen). mRNA was reversed transcribed using random hexamers RNA-to-cDNA kit (Takara). Specific forward and reverse primers were used in conjunction with PowerUp SYBR Green Master Mix (Applied Biosystems) for quantitative PCR. Expression levels were analyzed using the 2^−ΔΔCt method and were normalized for the expression of the housekeeping gene Hprt unless otherwise stated.

WEHI-3B cells = test: Ido1 mRNA in WEHI-3B cells exposed to recombinant SAA; format: cell-based, mouse; details: o/n treatment
Description: as §5, §6

AML and MDS BM MNCs = test: Ex vivo lineage-depleted AML and MDS patient BM MNCs exposed to SAA1; format: cell-based, human; details: SAA1 5 μg/ml, 24 h
Description: as §5
(§7) Cell proliferation was performed by using Cell Counting Kit 8 (WST-8, Abcam) as per manufacturer's instructions. Briefly, 0.03×10^6 cells were seeded on tissue-culture clear bottom microplates (Corning) in their corresponding media (100 μl). When indicated, cells were treated with the indicated compounds and for the indicated time points. 10 μl/well of WST-8 solution was added and incubated for 2 h at 37° C. before measuring absorbance at 460 nm. For each experiment, the absorbance of the blank wells (growth media and vehicle/treatment) was subtracted from the values for those wells with cells.
Ex vivo primary AML and MDS patient's samples: MNCs from fresh BM patients' aspirates were isolated as previously described and depleted from mature hematopoietic cells (lineage Cell Depletion Kit, Miltenyi Biotec Cat #130-092-211). […]

[6] = system: human AML and MDS cell lines; test: mRNA levels in human AML and MDS cell lines exposed to SAA1; format: cell-based
Description: as §5, §6

human AML cell lines = test: WST-8 proliferation of human AML cell lines exposed to SAA1; format: cell-based; details: SAA1 1 μg/ml, 24-72 h, versus vehicle
Description: as §5, §7
In vitro: the indicated cell lines were incubated in reduced-serum media and exposed to SAA1 (1 μg/ml) for the 24-72 h as indicated.

[7] = system: human BM cells from PDX healthy or PDX AML mice; test: Ex vivo total human BM cells isolated from PDX mice exposed to SAA1; format: cell-based; details: SAA1 1 μg/ml, 24 h
Description: as §5, §7
Ex vivo xenografts (healthy CD34^+ versus patient-derived AML): total BM from NSGS mice was depleted of mouse cells with mouse CD45 magnetic beads (Miltenyi Biotec Cat #130-052-301, RRID: AB_2877061) and negatively selected human cells used.

[8] = system: leukemic blasts (hCD45+CD33+); test: In vivo SAA1 treatment of PDX mice, Edu cell cycle analysis of leukemic blasts; design: species or system mouse
Description: SAA1 (Peprotech Cat #300-53) treatment: for short-term treatment (2 days), mice were injected intra venous (i.v.) 72 h and 48 h before harvesting. For long-term treatment (8-days), mice received daily i.v. injections. In order to get the same SAA1 concentration in blood that the one used in vitro, we used a dosage of 100 μg/kg of SAA1, diluted in 0.9% NaCl. Assuming a 20 g body weight, 2 ml total blood volume, and an even distribution in the mouse, systemic concentration of SAA1 should be approximately 1 μg/ml.
as §3, §4

WEHI-3B = test: WST-8 proliferation of mouse WEHI-3B AML cells exposed to SAA3; format: cell-based; details: SAA3 1 μg/ml, 24-72 h, versus vehicle
[9] = day 22 after initiating therapy, Ara-C 60 mg/kg/day x 5 days, epacadostat chow 1.6 g/kg 3 weeks
[10] = SAA1 i.v., 2- and 8-day treatments

## NS(=O)(=O)NCCNc1nonc1C(=NO)Nc1ccc(F)c(Br)c1 [epacadostat]
[1]
  systemic toxicity: did not show any obvious systemic toxicity
IDO1 [2]; MLL/AF9-injected mice, diet 1.6 g/kg
  reduction in serum Kyn levels: 35%
IDO1 [2]; MLL/AF9 leukemic mice, diet 0.8 g/kg
  effect on the 1.5-fold-increase in systemic Kyn/Trp levels of MLL/AF9 leukemic mice: did not reduce
IDO1 [2]; no leukemia, ad libitum diet 0.8 g/kg
  reduction in basal circulating Kyn/Trp levels: 54%
IDO1 [2]; wild type mice, dose not stated
  reduction in circulating kynurenine and tryptophan levels: 41%
[3]
  G0-G1 and G2-M populations of leukemic blasts: remained unchanged
  leukemic blasts apoptosis: increased leukemic blasts apoptosis
[3]; 12 days
  reduction in Kyn/Trp levels in blood: ~20%
[3]; 12 days, versus vehicle
  reduction in AML BM burden: ~20%
[3]; in vivo cell cycle
  proliferation of leukemic blasts (hCD45+CD33+): less proliferative
[4]; AML patient-derived xenograft models, summary statement
  leukemia burden in both the bone marrow and spleen: significantly decreases leukemia burden
[4]; [9]
  leukemic burden in BM: decreased leukemic burden
  leukemic burden in spleen: more pronounced effect in the spleen
IDO1 [5]
  cell cycle progression: impaired
  kynurenine secretion: abrogated
MLL/AF9 AML cells; AML-injected mice, dose not stated
  survival: increases in survival
MLL/AF9 AML cells; epacadostat diet 0.8 g/kg
  leukemia progression: tendency towards a slower leukemia progression
  survival: slight-yet significant-increase in survival
MLL/AF9 AML cells; epacadostat diet 1.6 g/kg
  AML burden: significant delay in AML burden
MLL/AF9 AML cells; epacadostat diet 1.6 g/kg, compared to the lower dose
  survival: significantly prolonged survival

B1: SAA1: recombinant human acute-phase protein serum amyloid A1 (Peprotech) (protein, UniProt P0DJI8 19-122, looked up)
Serum amyloid A-1 protein: RSFFSFLGEAFDGARDMWRAYSDMREANYIGSDKYFHARGNYDAAKRGPGGAWAAEVITDARENIQRFFGHGAEDSLADQAANEWGRSGKDPNHFRPAGLPEKY
OCI-AML3 cells
  IDO1 expression in OCI-AML3 leukemic cells: able to upregulate IDO1 expression
WEHI-3B cells
  Ido1 expression in WEHI-3B cells: able to upregulate Ido1 expression
AML and MDS BM MNCs
  IDO1 mRNA levels in patient-derived BM MNCs: increased
  proliferation of lineage-depleted AML and MDS BM MNCs: promoted proliferation
[6]; SAA1
  IDO1 expression across human AML cell lines and MDS-L: observed across several human AML cell lines as well as the MDS-L cell line
[6]; SAA1 1 μg/ml o/n
  expression of AHR target genes: upregulated most of the main AHR targets genes
Human AML cell lines
  proliferation of AML cell lines: increased proliferation
[7]
  proliferation of human cells from CD34+ healthy-injected mice: unresponsive
[7]; versus vehicle
  proliferation of patient-derived cells from AML-injected mice: high proliferative activity
[7]; PDX-AML versus CD34+ healthy-injected mice
  CYP1A1 and CYP1A2 gene expression: only upregulated in response to SAA1 in the human BM cells isolated from the PDX-AML
[7]; PDX-AML versus PDX healthy cells
  IDO1 expression: only upregulated in response to SAA1 in the PDX-AML isolated human cells
[8]; 8-day treatment
  % of Sub-G1 apoptotic cells: reduced
[8]; SAA1 100 μg/kg i.v., 2- and 8-day treatments
  proliferative rate of leukemic blasts (Edu+ cells, S-phase): maintained and prominent increase
[8]; [10]
  G0-G1 cells: decrease
  G2-M phase: unvarying
[8]; completion of the 8-day treatment
  increase in AML burden in the BM: 1.5 fold

B2: SAA3: recombinant mouse SAA3 (Cusabio), murine orthologue of SAA1 (protein, UniProt P04918 19-122, looked up)
Serum amyloid A-3 protein: QRWVQFMKEAGQGSRDMWRAYSDMKKANWKNSDKYFHARGNYDAARRGPGGAWAAKVISDAREAVQKFTGHGAEDSRADQFANEWGRSGKDPNHFRPAGLPKRY
WEHI-3B cells
  Ido1 expression in WEHI-3B cells: upregulated Ido1 expression
WEHI-3B
  proliferation of AML cell lines: increased proliferation
